Broadly, the pIC50 is the IC50 on a negative log10 scale, so that one unit is a factor of ten.

pIC50: −log10 of the molar value.

The results in this text go back to US11691962B2 (eXIthera Pharmaceuticals, Inc., priority 2018, dated 2023).

Common to all, as to format: biochemical
One experiment relates to Trypsin. The experiment can be described thus: Dose response assay for protease inhibitors: trypsin. The settings on record: selectivity, trypsin over Factor XIa. As to the method:
(§1) • Assay buffer: 20 mM Hepes, pH 7.4; 150 mM NaCl; 0.02% Tween 20 • Compounds: 10 mM stocks in DMSO • Substrate: 20 mM Glp-Pro-Arg-AMC, 25 mg/2.3 mL H2O (store at +4° C.) [Factor XIa, thrombin, and trypsin] • 20 mM Pro-Phe-Arg-AMC (Bachem I-1295), 25 mg/2.2 mL H2O • or Boc-Leu-Gly-Arg-AMC (Bachem I-1105), 25 mg/2.07 mL H2O • (store at +4° C.) [Factor Xa] • Enzyme: Factor XIa; 0.25 μM in 50% glycerol (20 μg/mL) • Trypsin; 0.2 μM in 50% glycerol (4.8 μg/mL) • Thrombin; 0.2 μM in 50% glycerol (7.34 μg/mL) • Factor Xa; 0.2 μM in 50% glycerol (9.2 μg/mL) • These stocks are aliquoted (˜100 μL/aliquot) and stored at −20° C. Methods: • 1. Dilute the substrate to 100 μM in assay buffer (30 μL/6 mL). The enzyme is diluted to 0.5 nM just prior to use (12 μL/6 mL for Factor XIa; 15 μL/6 mL for all of the rest.) • 2. Pipette 50 μL of substrate into each well of the 96 well (12×8) microtiter plate. (Column 1 is used as the 100% activity control and receives no compound, and Column 12 is the blank and receives no enzyme.) Add an additional 46 μL to column 2. • 3. Pipette 4 μL of each compound into the appropriate well in column 2 of the plate (unknowns assayed in triplicate, standard assayed in duplicate). The final compound concentration will be […] of the stock. • 4. Serially two-fold dilute the compound by mixing the sample in column 2, removing 50 μL to the next well (column 3), mix and remove to column 4, etc. until column 11. After mixing column 11, remove 50 μL and discard. • 5. Pipette 50 μL of buffer into column 12. Initiate the reaction by adding 50 μL of enzyme solution to each well of columns 1-11 as rapidly as possible. • 6. Read the plate in a spectrophotometer (SpectraMax) at 30° C., wherein each well is measured every 60 s for 30 min. For Factor Xa assays, each well is measured every 1 min for a total of 60 min. • 7. For Factor XIa assays, the compounds are assayed, in duplicate, at 3 different starting concentrations, 20, 2, and 0.2 μM; 1:10, 1:100, and 1:1000 dilution of 10 mM stock or at 2, 0.2, and 0.02 μM; 1:100, 1:1000, and 1:10,000 dilution of 10 mM stock. Data for each concentration are combined for graphing and data fitting. • 8. Data can be used both for estimation of IC50 and for estimation of Kon.

Another experiment deals with Factor Xa (Homo sapiens (Human), UniProt P00742). The experiment in a line: Dose response assay for protease inhibitors: Factor Xa. Particulars: selectivity, Factor Xa over Factor XIa. As to the method: as §1
Sequence of Factor Xa (P00742 235-488): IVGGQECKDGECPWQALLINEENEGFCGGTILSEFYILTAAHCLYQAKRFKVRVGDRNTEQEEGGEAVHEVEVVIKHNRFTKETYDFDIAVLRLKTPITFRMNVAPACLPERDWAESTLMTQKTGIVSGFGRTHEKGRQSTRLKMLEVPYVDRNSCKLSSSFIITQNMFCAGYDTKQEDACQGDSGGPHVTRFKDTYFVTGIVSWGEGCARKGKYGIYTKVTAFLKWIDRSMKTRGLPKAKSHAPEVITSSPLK
Sequence of Factor Xa (P00742 41-179 partner): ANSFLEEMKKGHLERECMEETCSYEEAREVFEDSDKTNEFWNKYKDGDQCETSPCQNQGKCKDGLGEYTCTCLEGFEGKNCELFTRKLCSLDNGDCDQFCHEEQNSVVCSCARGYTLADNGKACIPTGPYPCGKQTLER
The next experiment deals with Thrombin (Homo sapiens (Human), UniProt P00734). The experiment in a line: Dose response assay for protease inhibitors: thrombin. The settings on record: selectivity, thrombin over Factor XIa. The method, then:
as §1

A further experiment has as its target Factor XIa (Homo sapiens (Human), UniProt P03951). The experiment can be described thus: Factor XIa enzyme inhibition assay (dose response, fluorogenic AMC substrate). Particulars: read-out: hFXIa IC50. The essentials:
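Human FXIa at 0.25 nM final with 50 μM final PyroGlu-Pro-Arg-AMC in 20 mM Hepes pH 7.4, 150 mM NaCl, 0.02% Tween 20. Two-fold serial compound dilutions; fluorescence read every minute for 30 min at 30° C. IC50 from a four-parameter Hill fit.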

Sequence of Factor XIa (P03951 388-625): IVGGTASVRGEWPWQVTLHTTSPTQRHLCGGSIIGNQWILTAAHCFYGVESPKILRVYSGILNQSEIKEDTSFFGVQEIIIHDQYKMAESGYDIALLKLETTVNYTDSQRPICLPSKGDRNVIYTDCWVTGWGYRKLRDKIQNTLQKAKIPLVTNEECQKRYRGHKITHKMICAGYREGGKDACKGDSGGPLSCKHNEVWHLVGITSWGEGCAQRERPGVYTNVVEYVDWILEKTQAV
Sequence of Factor XIa (P03951 19-387 partner): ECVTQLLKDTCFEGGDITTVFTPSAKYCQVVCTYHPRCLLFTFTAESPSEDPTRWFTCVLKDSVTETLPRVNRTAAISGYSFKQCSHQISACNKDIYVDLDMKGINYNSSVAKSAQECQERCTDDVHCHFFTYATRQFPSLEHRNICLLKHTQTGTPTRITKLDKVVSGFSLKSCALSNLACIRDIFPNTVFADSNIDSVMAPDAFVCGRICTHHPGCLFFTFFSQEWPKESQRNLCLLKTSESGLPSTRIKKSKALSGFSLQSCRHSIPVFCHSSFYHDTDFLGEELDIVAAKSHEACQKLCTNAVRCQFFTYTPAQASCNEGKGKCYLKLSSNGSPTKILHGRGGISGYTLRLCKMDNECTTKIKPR

On to `CC[C@@H](NC(=O)N1C(=O)[C@H](Cc2ccnc(N)c2)[C@H]1C(=O)N(C)c1nccn1C)c1ccc(C)cc1` [Compound 1-87, (2S,3R)-3-((2-aminopyridin-4-yl)methyl)-N2-(1-methyl-1H-imidazol-2-yl)-N1-((R)-1-(4-methylphenyl)propyl)-N2-methyl-4-oxoazetidine-1,2-dicarboxamide], for which the “Ratio: Trypsin/FXIa” value in the experiment on Trypsin is “G (“G” indicates 1-100)”. Besides, the “Ratio: FXa/FXIa” value on Factor Xa was “I (“I” indicates > 500)”. Moreover, the “Ratio: Thrombin/FXIa” value on Thrombin is on record as “H (“H” indicates 101-1000)”. Further, the pIC50 on Factor XIa is > 8.00.

For the compound `CC[C@@H](NC(=O)N1C(=O)[C@H](Cc2ccnc(N)c2)[C@H]1C(=O)N(C)c1nccn1C)c1ccc(Cl)cc1` [Compound 1-94, (2S,3R)-3-((2-aminopyridin-4-yl)methyl)-N2-(1-methyl-1H-imidazol-2-yl)-N1-((R)-1-(4-chlorophenyl)propyl)-N2-methyl-4-oxoazetidine-1,2-dicarboxamide], the “Ratio: Trypsin/FXIa” value in the experiment with Trypsin is reported as “G (“G” indicates 1-100)”. For the same compound, on Factor Xa, the “Ratio: FXa/FXIa” value is listed as “H (“H” indicates 101-1000)”. The “Ratio: Thrombin/FXIa” value at Thrombin was “H (“H” indicates 101-1000)”. The pIC50 on Factor XIa was > 8.00.

With `CC[C@@H](NC(=O)N1C(=O)[C@H](Cc2ccnc(N)c2)[C@H]1C(=O)N(C)c1nccn1C)c1ccc(OC(F)(F)F)cc1` [Compound 1-97, (2S,3R)-3-((2-aminopyridin-4-yl)methyl)-N2-(1-methyl-1H-imidazol-2-yl)-N1-((R)-1-(4-trifluoromethoxyphenyl)propyl)-N2-methyl-4-oxoazetidine-1,2-dicarboxamide], the “Ratio: Trypsin/FXIa” value in the experiment with Trypsin is “G (“G” indicates 1-100)”. The “Ratio: FXa/FXIa” value at Factor Xa was “H (“H” indicates 101-1000)”. The “Ratio: Thrombin/FXIa” value at Thrombin is “H (“H” indicates 101-1000)”. In addition, the pIC50 on Factor XIa was 7.00 to 8.00.

Take `CC[C@@H](NC(=O)N1C(=O)[C@H](Cc2ccnc(N)c2)[C@H]1C(=O)N(C)c1nccn1C)c1ccc(F)cc1` [Compound 1-98, (2S,3R)-3-((2-aminopyridin-4-yl)methyl)-N2-(1-methyl-1H-imidazol-2-yl)-N1-((R)-1-(4-fluorophenyl)propyl)-N2-methyl-4-oxoazetidine-1,2-dicarboxamide]: in the experiment on Trypsin, the “Ratio: Trypsin/FXIa” value is on record as “G (“G” indicates 1-100)”. The “Ratio: FXa/FXIa” value at Factor Xa is listed as “I (“I” indicates > 500)”. Also, the “Ratio: Thrombin/FXIa” value on Thrombin is “H (“H” indicates 101-1000)”. Moreover, the pIC50 on Factor XIa was > 8.00.

Regarding `CC[C@@H](NC(=O)N1C(=O)[C@H](Cc2ccnc(N)c2)[C@H]1C(=O)N(C)c1nccn1C)c1cc(C)ccc1C` [Compound 1-99, (2S,3R)-3-((2-aminopyridin-4-yl)methyl)-N2-(1-methyl-1H-imidazol-2-yl)-N1-((R)-1-(2,5-dimethylphenyl)propyl)-N2-methyl-4-oxoazetidine-1,2-dicarboxamide], in the experiment on Trypsin, the “Ratio: Trypsin/FXIa” value is “G (“G” indicates 1-100)”. The “Ratio: FXa/FXIa” value on Factor Xa was “H (“H” indicates 101-1000)”. Also, at Thrombin, the “Ratio: Thrombin/FXIa” value is given as “H (“H” indicates 101-1000)”. The pIC50 at Factor XIa was > 8.00.

Turning to `CC[C@@H](NC(=O)N1C(=O)[C@H](Cc2ccnc(N)c2)[C@H]1C(=O)N(C)c1nccn1C)c1ccc(C)c(C)c1` [Compound 1-100, (2S,3R)-3-((2-aminopyridin-4-yl)methyl)-N2-(1-methyl-1H-imidazol-2-yl)-N1-((R)-1-(3,4-dimethylphenyl)propyl)-N2-methyl-4-oxoazetidine-1,2-dicarboxamide], in the experiment on Trypsin, the “Ratio: Trypsin/FXIa” value is on record as “G (“G” indicates 1-100)”. Further, the “Ratio: FXa/FXIa” value at Factor Xa is recorded as “H (“H” indicates 101-1000)”. The “Ratio: Thrombin/FXIa” value at Thrombin is “H (“H” indicates 101-1000)”. Also, the pIC50 on Factor XIa was > 8.00.

Regarding `CC[C@@H](NC(=O)N1C(=O)[C@H](Cc2ccnc(N)c2)[C@H]1C(=O)N(C)c1nccn1C)c1cc(C)ccc1Cl` [Compound 1-101, (2S,3R)-3-((2-aminopyridin-4-yl)methyl)-N2-(1-methyl-1H-imidazol-2-yl)-N1-((R)-1-(2-chloro-5-methylphenyl)propyl)-N2-methyl-4-oxoazetidine-1,2-dicarboxamide], in the experiment with Trypsin, the “Ratio: Trypsin/FXIa” value is reported as “G (“G” indicates 1-100)”. Further, the “Ratio: FXa/FXIa” value at Factor Xa is listed as “H (“H” indicates 101-1000)”. Besides, the “Ratio: Thrombin/FXIa” value on Thrombin is given as “H (“H” indicates 101-1000)”. Besides, the pIC50 at Factor XIa was > 8.00.

`CC[C@@H](NC(=O)N1C(=O)[C@H](Cc2ccnc(N)c2)[C@H]1C(=O)N(C)c1nccn1C)c1cc(C)ccc1F` [Compound 1-102, (2S,3R)-3-((2-aminopyridin-4-yl)methyl)-N2-(1-methyl-1H-imidazol-2-yl)-N1-((R)-1-(2-fluoro-5-methylphenyl)propyl)-N2-methyl-4-oxoazetidine-1,2-dicarboxamide]: in the experiment with Trypsin, the “Ratio: Trypsin/FXIa” value was “G (“G” indicates 1-100)”. The “Ratio: FXa/FXIa” value at Factor Xa was “I (“I” indicates > 500)”. The “Ratio: Thrombin/FXIa” value at Thrombin is listed as “H (“H” indicates 101-1000)”. In addition, the pIC50 at Factor XIa was > 8.00.

Consider `CC[C@@H](NC(=O)N1C(=O)[C@H](Cc2ccnc(N)c2)[C@H]1C(=O)N(C)c1nccn1C)c1ccc(C)c(Cl)c1` [Compound 1-103, (2S,3R)-3-((2-aminopyridin-4-yl)methyl)-N2-(1-methyl-1H-imidazol-2-yl)-N1-((R)-1-(3-chloro-4-methylphenyl)propyl)-N2-methyl-4-oxoazetidine-1,2-dicarboxamide], for which, in the experiment on Trypsin, the “Ratio: Trypsin/FXIa” value is listed as “G (“G” indicates 1-100)”. In addition, the “Ratio: FXa/FXIa” value on Factor Xa was “H (“H” indicates 101-1000)”. At Thrombin, the “Ratio: Thrombin/FXIa” value is given as “H (“H” indicates 101-1000)”. Also, on Factor XIa, the pIC50 was > 8.00.

`CC[C@@H](NC(=O)N1C(=O)[C@H](Cc2cc(C)nc(N)c2)[C@H]1C(=O)N(C)c1nccn1C)c1ccc(Cl)cc1` [Compound 1-105, (2S,3R)-3-((2-amino-6-methylpyridin-4-yl)methyl)-N2-(1-methyl-1H-imidazol-2-yl)-N1-((R)-1-(4-chlorophenyl)propyl)-N2-methyl-4-oxoazetidine-1,2-dicarboxamide]: the “Ratio: Trypsin/FXIa” value in the experiment with Trypsin was “G (“G” indicates 1-100)”. Besides, the “Ratio: FXa/FXIa” value on Factor Xa is “I (“I” indicates > 500)”. Besides, on Thrombin, the “Ratio: Thrombin/FXIa” value is recorded as “H (“H” indicates 101-1000)”. Besides, the pIC50 on Factor XIa was 7.00 to 8.00.

For `CC[C@@H](NC(=O)N1C(=O)[C@H](Cc2cc(C)nc(N)c2)[C@H]1C(=O)N(C)c1nccn1C)c1ccc(F)cc1` [Compound 1-106, (2S,3R)-3-((2-amino-6-methylpyridin-4-yl)methyl)-N2-(1-methyl-1H-imidazol-2-yl)-N1-((R)-1-(4-fluorophenyl)propyl)-N2-methyl-4-oxoazetidine-1,2-dicarboxamide], in the experiment with Trypsin, the “Ratio: Trypsin/FXIa” value is recorded as “G (“G” indicates 1-100)”. For the same compound, the “Ratio: FXa/FXIa” value at Factor Xa is reported as “I (“I” indicates > 500)”. Also, the “Ratio: Thrombin/FXIa” value at Thrombin was “H (“H” indicates 101-1000)”. Also, the pIC50 at Factor XIa was > 8.00.

Regarding `CC[C@@H](NC(=O)N1C(=O)[C@H](Cc2cc(C)nc(N)c2)[C@H]1C(=O)N(C)c1nccn1C)c1ccc(C)cc1` [Compound 1-107, (2S,3R)-3-((2-amino-6-methylpyridin-4-yl)methyl)-N2-(1-methyl-1H-imidazol-2-yl)-N1-((R)-1-(4-methylphenyl)propyl)-N2-methyl-4-oxoazetidine-1,2-dicarboxamide], in the experiment on Trypsin, the “Ratio: Trypsin/FXIa” value was “G (“G” indicates 1-100)”. Further, the “Ratio: FXa/FXIa” value at Factor Xa is reported as “I (“I” indicates > 500)”. At Thrombin, the “Ratio: Thrombin/FXIa” value is “H (“H” indicates 101-1000)”. For the same compound, the pIC50 on Factor XIa is 7.00 to 8.00.
